# Biological target: T1, PD-1/PD-L1 (Homo sapiens, UniProt Q9NZQ7)
# T1 construct: made in house; host or cells: HEK293T
# Test: PD-1/PD-L1 Homogenous Time-Resolved Fluorescence (HTRF) binding assay
# Details: PD-L1-His 10 nM, PD-1-Ig 20 nM; numeric IC50; read-out: Range or IC50
# Outline: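 Detection by europium cryptate anti-Ig plus APC anti-His (1 nM and 20 nM final) with HTRF signal. Buffer was dPBS, 0.1% BSA, 0.05% Tween-20.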
# T1 sequence (Q9NZQ7 with tags, fused parts or gaps): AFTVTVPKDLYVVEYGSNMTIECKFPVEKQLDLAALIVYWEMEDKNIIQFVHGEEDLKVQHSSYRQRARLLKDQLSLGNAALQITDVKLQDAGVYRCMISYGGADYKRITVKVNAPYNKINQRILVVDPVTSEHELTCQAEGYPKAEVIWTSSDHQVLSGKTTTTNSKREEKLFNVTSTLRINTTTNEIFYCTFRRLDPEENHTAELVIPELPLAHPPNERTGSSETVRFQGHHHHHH
row,IC50 [nM],SMILES
1,0.88,"Cc1c(COc2cc(OCc3cncc(C#N)c3)c(CN3CCCC[C@H]3C(=O)O)cc2Cl)cccc1-c1cccc(OCCCNC[C@H](O)CO)c1Cl [Example 2007, (S)-1-(5-chloro-4-((2′-chloro-3′-(3-(((S)-2,3-dihydroxypropyl)amino)propoxy)-2-methyl-[1,1′-biphenyl]-3-yl)methoxy)-2-((5-cyanopyridin-3-yl)methoxy)benzyl)piperidine-2-carboxylic Acid]"

# Same assay, conditions: PD-L1-His 10 nM, PD-1-Ig 20 nM; value given as range class; read-out: Range or IC50
row,SMILES,IC50 [nM]
1,"Cc1c(COc2cc(OCc3cncc(C#N)c3)c(CN[C@@H](CCCNC(=N)N)C(=O)O)cc2Cl)cccc1-c1cccc(OCCCN2CCC(O)C2)c1 (stereo in doubt) [Example 3002, (S)-2-((5-chloro-2-((5-cyanopyridin-3-yl)methoxy)-4-((3′-(3-((R)-3-hydroxypyrrolidin-1-yl)propoxy)-2-methyl-[1,1′-biphenyl]-3-yl)methoxy)benzyl)amino)-5-guanidinopentanoic Acid]",0.21 to 10
2,"Cc1c(COc2cc(OCc3cncc(C#N)c3)c(CN3CCNC(=O)C3)cc2Cl)cccc1-c1cccc(OCCCN2CC[C@@H](O)C2)c1C [Example 2331, (R)-5-((4-chloro-5-((3′-(3-(3-hydroxypyrrolidin-1-yl)propoxy)-2,2′-dimethyl-[1,1′-biphenyl]-3-yl)methoxy)-2-((3-oxopiperazin-1-yl)methyl)phenoxy)methyl)nicotinonitrile]",0.21 to 10
3,"Cc1c(COc2cc(OCc3cncc(C#N)c3)c(CN[C@](C)(CO)C(=O)O)cc2Cl)cccc1-c1cccc(OCCCN2CC[C@@H](O)C2)c1Cl [Example 1121, (R)-2-((5-Chloro-4-((2′-chloro-3′-(3-((R)-3-hydroxypyrrolidin-1-yl)propoxy)-2-methyl-[1,1′-biphenyl]-3-yl)methoxy)-2-((5-cyanopyridin-3-yl)methoxy)benzyl)amino)-3-hydroxy-2-methylpropanoic Acid]",0.21 to 10
4,"Cc1c(COc2cc(OCc3cncc(C(N)=O)c3)c(CN[C@H](CO)C(=O)O)cc2Cl)cccc1-c1cccc(OCCCN2CCC(CO)(C(=O)O)C2)c1C (stereo partly drawn) [Example 1053, 1-(3-((3′-((5-((5-carbamoylpyridin-3-yl)methoxy)-4-((((R)-1-carboxy-2-hydroxyethyl)amino)methyl)-2-chlorophenoxy)methyl)-2,2′-dimethyl-[1,1′-biphenyl]-3-yl)oxy)propyl)-3-(hydroxymethyl)pyrrolidine-3-carboxylic Acid]",0.21 to 10
5,"Cc1c(COc2cc(OCc3cncc(C#N)c3)c(CO)cc2Cl)cccc1-c1cccc(OCCCN2CC[C@@H](O)C2)c1C(F)F [Example 1515, (R)-5-((4-chloro-5-((2′-(difluoromethyl)-3′-(3-(3-hydroxypyrrolidin-1-yl)propoxy)-2-methyl-[1,1′-biphenyl]-3-yl)methoxy)-2-(hydroxymethyl)phenoxy)methyl)nicotinonitrile]",10 to 100
6,"Cc1c(COc2cc(OCc3cncc(C#N)c3)c(CN[C@H](CO)C(=O)O)cc2Cl)cccc1-c1cccc(OCCC(=O)N2CC[C@@H](O)C2)c1 [Example 1009, (R)-2-((5-chloro-2-((5-cyanopyridin-3-yl)methoxy)-4-((3′-(3-((R)-3-hydroxypyrrolidin-1-yl)-3-oxopropoxy)-2-methyl-[1,1′-biphenyl]-3-yl)methoxy)benzyl)amino)-3-hydroxypropanoic Acid]",0.21 to 10
7,"CO[C@@H]1CCN(CCCOc2cccc(-c3cccc(COc4cc(OCc5cncc(C#N)c5)c(CO)cc4Cl)c3C)c2C)C1 [Example 2277, 5-((4-chloro-2-(hydroxymethyl)-5-((3′-(3-((R)-3-methoxypyrrolidin-1-yl)propoxy)-2,2′-dimethylbiphenyl-3-yl)methoxy)phenoxy)methyl)nicotinonitrile]",0.21 to 10
8,"Cc1c(COc2cc(OCc3cncc(C#N)c3)c(CN3CCCC[C@H]3C(=O)O)cc2Cl)cccc1-c1cccc(OCCCN2C[C@H](O)C[C@H]2C(N)=O)c1Cl [Example 1085, (S)-1-(4-((3′-(3-((2S,4R)-2-carbamoyl-4-hydroxypyrrolidin-1-yl)propoxy)-2′-chloro-2-methyl-[1,1′-biphenyl]-3-yl)methoxy)-5-chloro-2-((5-cyanopyridin-3-yl)methoxy)benzyl)piperidine-2-carboxylic Acid]",0.21 to 10
9,"Cc1c(COc2cc(OCc3cncc(C#N)c3)c(CN3CCCC[C@H]3C(=O)O)cc2Cl)cccc1-c1cccc(OCCCN[C@@H](CO)c2ccccc2)c1C [Example 2230, (2S)-1-(5-chloro-2-((5-cyanopyridin-3-yl)methoxy)-4-((3′-(3-((R)-2-hydroxy-1-phenylethylamino)propoxy)-2,2′-dimethylbiphenyl-3-yl)methoxy)benzyl)piperidine-2-carboxylic Acid]",0.21 to 10

# Continued, values first:
row,IC50 [nM],SMILES
1,0.21 to 10,"CN(C)CCOc1cc(OCc2cccc(-c3cccc(OCCCN4CC[C@@H](O)C4)c3Cl)c2Cl)c(Cl)cc1CNC(C)(CO)CO [Example 2108, (R)-2-((5-chloro-4-((2,2′-dichloro-3′-(3-(3-hydroxypyrrolidin-1-yl)propoxy)-[1,1′-biphenyl]-3-yl)methoxy)-2-(2-(dimethylamino)ethoxy)benzyl)amino)-2-methylpropane-1,3-diol]"
2,0.21 to 10,"Cc1c(COc2cc(OCc3cncc(C#N)c3)c(CN3CCCCC3(C)C(=O)O)cc2Cl)cccc1-c1cccc(OCCCN2CC[C@@H](O)C2)c1C (stereo partly drawn) [Example 3068, 1-(5-chloro-2-((5-cyanopyridin-3-yl)methoxy)-4-((3′-(3-((R)-3-hydroxypyrrolidin-1-yl)propoxy)-2,2′-dimethyl-[1,1′-biphenyl]-3-yl)methoxy)benzyl)-2-methylpiperidine-2-carboxylic Acid]"
3,0.21 to 10,"Cc1c(COc2cc(OCc3cncc(C#N)c3)c(CN3CCCC[C@H]3C(=O)O)cc2Cl)cccc1-c1cccc(OCCCN2CC[C@@](O)(c3ccc(Cl)cc3)[C@](C)(O)C2)c1Cl [Example 1088, (S)-1-(5-chloro-4-((2′-chloro-3′-(3-((3R,4R)-4-(4-chlorophenyl)-3,4-dihydroxy-3-methylpiperidin-1-yl)propoxy)-2-methyl-[1,1′-biphenyl]-3-yl)methoxy)-2-((5-cyanopyridin-3-yl)methoxy)benzyl)piperidine-2-carboxylic Acid]"
4,0.21 to 10,"Cc1ccccc1-c1cccc(COc2cc(OCc3cncc(C#N)c3)c(CN[C@@](C)(CO)C(=O)O)cc2Cl)c1C [Example 3020, (S)-2-((5-chloro-2-((5-cyanopyridin-3-yl)methoxy)-4-((2,2′-dimethyl-[1,1′-biphenyl]-3-yl)methoxy)benzyl)amino)-3-hydroxy-2-methylpropanoic Acid]"
5,10 to 100,"Cc1cc(C(=O)N2CCOCC2)ccc1-c1cccc(COc2cc(OCc3cncc(C#N)c3)c(CNC(CO)CO)cc2Cl)c1C [Example 2349, 5-((4-chloro-2-(((1,3-dihydroxypropan-2-yl)amino)methyl)-5-((2,2′-dimethyl-4′-(morpholine-4-carbonyl)-[1,1′-biphenyl]-3-yl)methoxy)phenoxy)methyl)nicotinonitrile]"
6,0.21 to 10,"Cc1c(COc2cc(OCc3cncc(C(N)=O)c3)c(CN[C@](C)(CO)C(=O)O)cc2Cl)cccc1-c1cccc(OCCCN2CCC(O)(C(=O)O)CC2)c1C [Example 1094, (R)-1-(3-((3′-((5-((5-carbamoylpyridin-3-yl)methoxy)-4-(((2-carboxy-1-hydroxypropan-2-yl)amino)methyl)-2-chlorophenoxy)methyl)-2,2′-dimethyl-[1,1′-biphenyl]-3-yl)oxy)propyl)-4-hydroxypiperidine-4-carboxylic Acid]"

# From patent publication US10745382B2 (BRISTOL-MYERS SQUIBB COMPANY, priority 2015, dated 2020)
